# Reference: patent US9000045B2, “CETP activity inhibitors” (Japan Tobacco Inc., priority 1997, dated 2015)
# Legend:
# CETP [1] = biological target: T1, CETP (Homo sapiens, UniProt P11597); test: Ex vivo CETP activity inhibitory effect of plasma from transgenic mice; set-up: from tissue; host or cells: plasma of transgenic mice carrying the human CETP gene; conditions: mouse, po, p.o., 6 hours after administration, transgenic mice with human CETP gene, read-out: CETP activity inhibitory rate in plasma from transgenic mouse
# T1 sequence (P11597 18-493): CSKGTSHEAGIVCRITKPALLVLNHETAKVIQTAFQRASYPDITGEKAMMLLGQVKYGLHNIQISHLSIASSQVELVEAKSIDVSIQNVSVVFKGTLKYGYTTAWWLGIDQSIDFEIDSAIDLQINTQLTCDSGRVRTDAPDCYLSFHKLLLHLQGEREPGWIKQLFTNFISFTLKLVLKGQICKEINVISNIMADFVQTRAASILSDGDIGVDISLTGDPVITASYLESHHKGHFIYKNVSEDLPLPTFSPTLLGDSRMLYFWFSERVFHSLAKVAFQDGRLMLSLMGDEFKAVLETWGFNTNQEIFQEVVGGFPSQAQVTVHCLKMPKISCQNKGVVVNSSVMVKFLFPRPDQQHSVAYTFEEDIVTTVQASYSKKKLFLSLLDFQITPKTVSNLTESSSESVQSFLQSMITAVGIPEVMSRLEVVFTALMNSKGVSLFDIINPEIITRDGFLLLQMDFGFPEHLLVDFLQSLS
# Experimental: Potassium bromide (KBr) was added to the plasma of healthy subjects (40 ml) to adjust specific gravity to d=1.125 g/ml. Density gradient centrifugation (227,000×g, 4° C., 17 hours) was conducted to obtain a fraction with specific gravity d>1.125 g/ml (HDL3 fraction). The fraction thus obtained was dialyzed against a PBS solution [10 mM Na2HPO4/10 mM NaH2PO4/0.15 M NaCl/1 mM EDTA (pH 7.4)]. Then, tritium-labeled cholesterol (10 nM) (50.3 Ci/mM) was dissolved in 95% ethanol and added gradually to the above HDL3 fraction under stirring. The solution was incubated for 18 hours at 37° C. [Tritium-labeled cholesterol was esterified by this procedure by the action of lecithin:cholesterol acyltransferase (LCAT) present on the surface of HDL3 and taken up into the interior of HDL3 as tritium-labeled cholesterylester ([^3H]CE)]. After incubation, KBr was added and specific gravity was adjusted to d=1.21 g/ml. Density gradient centrifugation (227,000×g, 4° C., 17 hours) was conducted and the fraction with d<1.21 g/ml was harvested. The fraction thus obtained was dialyzed against the above PBS solution to obtain HDL3 that took up [^3H]CE ([^3H]CE-HDL3, specific gravity: 1.125<d<1.21, specific activity: 101,000 dpm/nM), which served as donor lipoprotein.
# Physiological saline (specific gravity d=1.006 g/ml) was layered upon the plasma of healthy subjects (100 ml). Density gradient centrifugation (227,000×g, 4° C., 4 hours) was conducted and the fraction with specific gravity d>1.006 g/ml was harvested. KBr was added to the fraction thus obtained to adjust specific gravity to d=1.063 g/ml and density gradient centrifugation (227,000×g, 4° C., 20 hours) was conducted to harvest the fraction with specific gravity […]. The thus-obtained fraction was dialyzed against the above PBS solution to obtain fractions containing IDL and LDL (specific gravity: 1.006<d<1.063), which served as acceptor lipoprotein.
# Samples were suspended in a 0.5% methylcellulose solution and administered orally using a plastic probe to transgenic mice having introduced human CETP gene (hereafter referred to as mice; prepared using the method described in Japanese Patent Application No. Hei 8-130660), which had been fasted overnight. Blood was collected before administration, and 6 hours after administration CETP activity in the plasma was determined using the following method.
# Donor lipoprotein ([^3H]CE-HDL3, containing 0.21 μg cholesterol) obtained in the above (1), acceptor lipoprotein obtained in the above (2) (containing 21 μg of cholesterol), and 0.9 μl of mice plasma were added to microtubes. A total volume was adjusted to 600 μl/tube with a TBS solution [10 mM Tris/0.15 M NaCl (pH 7.4)]. The microtubes were incubated for 15 hours at 37° C. or 4° C. Then, an ice-cooled TBS solution (400 μl/tube) and a 0.3% dextran sulfate solution (100 μl/tube) containing 0.15 M magnesium chloride were added to the microtubes and mixed well. After allowing the microtubes to stand for 30 minutes at 4° C., centrifugation (8,000 rpm, 4° C., 10 minutes) was carried out and radioactivity of the resulting supernatant (HDL fraction) was determined with a scintillation counter.
# CETP [2] = biological target: T1, CETP; test: In vitro CETP activity inhibitory effect in whole plasma; format: biochemical; set-up: Plasma containing [^3H]CE-HDL3 (600,000 dpm/ml) was prepared by adding donor lipoprotein obtained in the above (1) to plasma from healthy subjects; from tissue; host or cells: whole plasma of healthy subjects; conditions: plasma from healthy subjects containing [3H]CE-HDL3, incubated 4 hours at 37° C.; read-out: CETP activity inhibition in whole plasma IC50
# Method in brief: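 HDL3 was labelled with tritiated cholesterol (10 nM) for 18 h at 37° C in PBS with EDTA (pH 7.4). Test samples were in 1:1 N-methylpyrrolidone/PEG 400 and assayed in whole plasma. IC50 was calculated from % inhibition of CETP activity.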
inhibition at 10 mg/kg (CETP [1]) [%],inhibition at 30 mg/kg (CETP [1]) [%],IC50 (CETP [2]) [µM],inhibition at 100 mg/kg (CETP [1]) [%],SMILES
15,40,6,,CCC(=O)Sc1ccccc1NC(=O)C1(CCC(C)C)CCCCC1 [Example 38]
,31,6,,CC(C)CCC1(C(=O)Nc2ccccc2SC(=O)C2(N)CCCCC2)CCCCC1 [Example 47]
,38,4,,CCC(CC)CC1(C(=O)Nc2ccccc2SC(=O)COC)CCCCC1 [Example 61]
,31,49,50,CC(C)CCC1(C(=O)Nc2ccccc2SC(=O)C(C)(C)C)CCCC1 [Example 48]
,31,7,,"CC(C)CC1(C(=O)Nc2ccccc2SC(=O)C(C)C)CCCCC1 [Example 27, S-[2-(1-isobutylcyclohexanecarbonylamino)phenyl]2-methylthiopropionate]"
,43,4,,CCC(CC)CC1(C(=O)Nc2ccccc2SC(=O)COc2ccc(Cl)cc2)CCCCC1 [Example 63]
20,37,8,,CC(C)CCC1(C(=O)Nc2ccccc2SC(=O)/C=C/c2ccccc2)CCCCC1 [Example 25-59]
,34,13,,CC(C)CCC1(C(=O)Nc2ccccc2SC(=O)Nc2ccccc2)CCCCC1 [Example 56]
,22,11,,COc1ccc(NC(=O)Sc2ccccc2NC(=O)C2(CCC(C)C)CCCC2)cc1 [Example 25-107]
,29,10,,CC(C)CCC1(C(=O)Nc2ccccc2SC(=O)Nc2ccccc2)CCCC1 [Example 25-106]
,19,16,,CC(C)CCC1(C(=O)Nc2ccccc2SC(=O)CCl)CCCCC1 [Example 36]
27,42,7,,CC(C)CCC1(C(=O)Nc2ccccc2SC(=O)COc2ccc(Cl)cc2)CCCCC1 [Example 41]
,4,9,,CC(=O)N[C@@H](Cc1ccccc1)C(=O)Sc1ccccc1NC(=O)C1(CCC(C)C)CCCCC1 [Example 34]
,10,21,,CC(C)CCC1(C(=O)Nc2ccc(F)cc2SC(=O)C(C)(C)C)CCCCC1 [Example 81]
,44,4,,CCC(CC)CC1(C(=O)Nc2ccccc2SC(C)=O)CCCCC1 [Example 59]
,21,13,,CC(=O)N[C@H](C(=O)Sc1ccccc1NC(=O)C1(CCC(C)C)CCCCC1)C(C)C [Example 25-45]
14,26,60,,CC(C)CCC1(C(=O)Nc2cc(F)ccc2SC(=O)C(C)(C)C)CCCCC1 [Example 79]
,36,6,,"CCC(CC)CC1(C(=O)Nc2ccccc2SC(=O)C2CCN(C(C)=O)CC2)CCCCC1 [Example 28, S[2-[1-(2-ethylbutyl)cyclohexanecarbonylamino)-phenyl]1-acetylpiperidine-4-thiocarboxylate]"
,25,16,,COc1ccc(NC(=O)Sc2ccccc2NC(=O)C2(CCC(C)C)CCCCC2)cc1 [Example 25-100]
,5,14,,CC(C)CCC1(C(=O)Nc2cc([N+](=O)[O-])ccc2SC(=O)C(C)(C)C)CCCCC1 [Example 74]
,26,7,,CC(C)CCC1(C(=O)Nc2ccccc2SC(=O)C2CCN(C)CC2)CCCCC1 [Example 25-53]
18,42,7,47,COCC(=O)Sc1ccccc1NC(=O)C1(CCC(C)C)CCCCC1 [Example 37]
22,44,56,,Cc1ccc(S)c(NC(=O)C2(CCC(C)C)CCCCC2)c1 [Example 22]
18,46,7,,CSCC[C@H](NC(C)=O)C(=O)Sc1ccccc1NC(=O)C1(CCC(C)C)CCCCC1 [Example 25-57]
